Patent publication US11419914B2 (Serenity Pharmaceuticals LLC, priority 2009, dated 2022)
Like-named read-outs stand apart in the source and are kept apart here.

What was measured:
clinical = settings: human, in vivo, inhaled or intranasal
Procedure: (§1) The open-label preliminary study of the effects and pharmacokinetics of the prototype dispensers was conducted with six male and six female healthy, water loaded, non-smoking volunteer subjects, following the protocol described generally below. In summary, each subject was dosed up to four times over a period of one week with dosing administered every other day. […] All subjects were screened prior to the first treatment, including evaluations of medical history, complete physical exam including nasopharyngeal exam, serum chemistry including serum osmolality, urinalysis including urine osmolality.
On day one all subjects were asked to have his/her morning void prior to breakfast, and thereafter subjects started the water loading process. […] Insensible loss was not measured or replaced. […]
Blood sampling for pharmacokinetic determinations was performed at 1, 1.5, 2, 3, 4 and 6 hours post dose. […] A plasma concentration value below the limit of quantitation (“LOQ”) followed by values above the limit was set at ‘LOQ/2’ for the analysis and for the descriptive statistics on concentrations. […]
Assay values below the level of detection that occurred between two non-zero concentrations were considered to be “missing” for purposes of calculating the AUC. […] Accordingly, an average terminal half-life (Avg T1/2) was calculated for each subject that included a treatment with evaluable half-lives in that subject. […]

[1] = tested on: adult patients with nocturia; assay type: in vivo, human; settings: 500 and 1000 ng (one or two sprays intranasally)
Procedure: A second separate study in adult patients with nocturia established that doses of 500 and 1000 ng (one or two sprays administered intranasally) produced dramatic therapeutic decreases in the number of night time urinary voids equal to or less than one per night in 41 of 43 patients.

[2] = in vivo, cited from earlier work
[3] = tested on: human adult subjects in a water loaded state; assay: Antidiuretic effect (urine output, urine osmolarity, duration) in water loaded subjects; assay type: in vivo
Procedure: as §1
On day one all subjects were asked to have his/her morning void prior to breakfast, and thereafter subjects started the water loading process. […] To achieve a steady state diuresis, the subjects were directed to drink a volume of water corresponding to at least 1.5% and up to 3% of body weight. The water loading process started about two hours prior to the dosing of the first subject. Subjects were asked to void every 20 minutes. To ensure continuous water loaded state, the subjects replaced their urinary output loss with an equivalent amount of fluid. Insensible loss was not measured or replaced. When the urinary output rate exceeded 10 ml/min in two consecutive measurements (defined as water loaded state) in the subjects, dosing began. Subjects were maintained in the water loaded state with equivalent fluid intake versus fluid loss.
Other than the dose level, all procedures were the same as those described for day one.

## NC(=O)CC[C@@H]1NC(=O)[C@H](Cc2ccccc2)NC(=O)[C@H](Cc2ccc(O)cc2)NC(=O)CCSSC[C@@H](C(=O)N2CCC[C@H]2C(=O)N[C@H](CCCN=C(N)N)C(=O)NCC(N)=O)NC(=O)[C@H](CC(N)=O)NC1=O [desmopressin, 1-desamino-8-D-arginine vasopressin]
clinical; both sexes, T1/2
  half-life: 1.13 ± 0.3 h
clinical; both
  T1/2: 1.33 ± 0.56 h
[1]
  patients with night time urinary voids equal to or less than one per night: 41 of 43
[2]; human, inhaled or intranasal
  bioavailability: 3-5%
[2]; human
  half life: ≥ 1.5 h
[2]; po
  bioavailability: far less than one percent
[3]; after 2 μg nasally
  time urine osmolarity remained greater than about 400 mOsmol/Kg: about 250 minutes
[3]; after 2000 ng nasally
  period urine output remained less than 8 ml/minute: up to 400 minutes
[3]; within 20 minutes after 2000 ng nasally, water loaded men and women
  mean urine output: less than 8 ml/minute
[3]; within 40 minutes after 2 μg nasally
  mean urine osmolarity: greater than 400 mOsmol/kg
